The values that follow come from patent publication US9920074B2 (ACEA BIOSCIENCES INC., priority 2013, dated 2018).

Experiment [1] concerns Stat5 phosphorylation in NK-92 cells. Kind of experiment: Western blotting assay for Stat5. In kind it is cell-based. The following applies: NK92, 1 hour, IL-2 stimulation, read-out: Stat5 inhibition. As for the experimental part: (§1) All cell lines were obtained from the American Type Culture Collection and were maintained at 37° C. with 5% CO2. Ramos cell line was maintained in media supplemented with 10% fetal bovine serum, penicillin (100 units/mL) and streptomycin (100 μg/mL). NK-92 cell line was maintained in media supplemented with 10% fetal bovine serum and 10% horse serum, penicillin (100 units/mL) and streptomycin (100 μg/mL), IL-2 10 ng/mL. Goat F(ab′)2 Anti-Human IgM-UNLB was obtained from SouthernBiotech. IL-2 was obtained from Peprotech.
NK-92 cells were treated with compounds at the dosed indicated for 1 hour in incubator, followed by the IL-2 stimulation for 15 minutes. Cells were then collected and lysed to prepare the cellular extraction. Western blots were performed on cell lysate using Phospho-Jak3, Jak3, Phospho-Stat5, Stat5 antibodies (Cell Signaling Technology). The intensity of blotting band was acquired using Image Lab (Bio-Rad) software, and the IC50 of target was generated with GraphPad Prism.
A general note: A western blot detects proteins with antibodies after separation by electrophoresis.

The target of experiment [2] is T1, Btk (Tyr223) phosphorylation in Ramos cells (Homo sapiens, UniProt Q06187).
T1 construct: endogenous in cells; host or cells: Ramos cells (ATCC)
T1 sequence (Q06187 whole entry): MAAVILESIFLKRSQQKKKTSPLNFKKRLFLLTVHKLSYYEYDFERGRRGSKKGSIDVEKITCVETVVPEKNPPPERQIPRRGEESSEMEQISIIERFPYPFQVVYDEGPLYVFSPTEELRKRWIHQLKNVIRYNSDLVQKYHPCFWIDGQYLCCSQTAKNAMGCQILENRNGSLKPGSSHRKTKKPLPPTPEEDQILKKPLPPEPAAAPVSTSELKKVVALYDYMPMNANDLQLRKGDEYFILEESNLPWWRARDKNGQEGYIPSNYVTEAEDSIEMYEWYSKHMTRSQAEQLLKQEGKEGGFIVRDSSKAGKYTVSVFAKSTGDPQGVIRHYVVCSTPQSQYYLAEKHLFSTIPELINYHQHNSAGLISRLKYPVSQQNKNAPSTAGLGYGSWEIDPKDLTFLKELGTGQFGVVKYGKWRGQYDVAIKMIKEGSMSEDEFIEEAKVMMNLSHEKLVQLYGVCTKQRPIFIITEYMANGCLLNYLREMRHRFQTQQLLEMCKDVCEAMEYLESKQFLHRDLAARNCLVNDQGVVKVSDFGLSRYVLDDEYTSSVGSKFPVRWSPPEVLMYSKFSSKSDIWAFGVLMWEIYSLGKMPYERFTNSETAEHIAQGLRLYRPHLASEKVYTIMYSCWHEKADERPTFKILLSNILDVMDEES
The experiment can be described thus: Western blotting assay for Btk (Example 73). It counts as cell-based. The following applies: 45 min, 6 μg/mL anti-IgM, read-out: Btk Inhibition. As for the experimental part:
as §1
Ramos cells were treated with compounds at indicated doses for 45 min at room temperature, followed by stimulation of 6 μg/mL of anti-IgM for 30 min, and then lysed. Western blots were performed on the cell lysate using Phospho-Btk (Tyr223), Phospho-Btk (Tyr551), Btk, Phospho-PLCγ2 (Tyr1217), PLCγ2, Phospho-p44/42 MAPK (Erk1/2) (Thr202/Tyr204) and p44/42 MAPK (Erk1/2) antibodies (Cell Signaling Technology). The density of blotting band was acquired using ImageJ software, and the IC50 of Btk (Tyr223) phosphorylation was fitted using a non-linear regression model by GraphPad Prism.

The structures appear in SMILES notation.

In the case of `C=CC(=O)Nc1cccc(Oc2nc(Nc3ccc(N(C)CCOC)cc3)ncc2OC)c1` [Compound I-35a, N-(3-(5-methoxy-2-(4-((2-methoxyethyl)(methyl)amino)phenylamino)pyrimidin-4-yloxy)phenyl)acrylamide], the IC50 was 200 to 400 nM in experiment [1] and at most 10 nM in experiment [2].

Turning to `C=CC(=O)Nc1cccc(Oc2nc(Nc3ccc4c(c3)CCN4CCOC)nc3[nH]ccc23)c1` [Compound I-36a, N-(3-(2-(1-(2-methoxyethyl)indolin-5-ylamino)-7H-pyrrolo[2,3-d]pyrimidin-4-yloxy)phenyl)acrylamide], the IC50 in experiment [1] was 200 to 400 nM; in experiment [2] it was 10 to 100 nM.

Take `C=CC(=O)Nc1cccc(Oc2nc(Nc3cc(F)c(OCCOC)c(F)c3)nc3[nH]ccc23)c1` [Compound I-37a, N-(3-(2-(3,5-difluoro-4-(2-methoxyethoxy)phenylamino)-7H-pyrrolo[2,3-d]pyrimidin-4-yloxy)phenyl)acrylamide]: the IC50 in experiment [1] is at least 400 nM; in experiment [2] it was 10 to 100 nM.

Consider `C=CC(=O)Nc1cccc(Oc2nc(Nc3ccc(N(CCC)CCOC)cc3)ncc2OC)c1` [Compound I-38a, N-(3-(5-methoxy-2-(4-((2-methoxyethyl)(propyl)amino)phenylamino)pyrimidin-4-yloxy)phenyl)acrylamide], for which the values for the IC50 in experiment [1] and in experiment [2] were at least 400 nM and 10 to 100 nM, respectively.

Take `C=CCN(CCOC)c1ccc(Nc2ncc(OC)c(Oc3cccc(NC(=O)C=C)c3)n2)cc1` [Compound I-39a]: the IC50 in experiment [1] was at least 400 nM; in experiment [2], 10 to 100 nM.

As for `C=CC(=O)Nc1cccc(Oc2nc(Nc3ccc(N[C@H]4CCN(CCOC)C4)cc3)nc3[nH]ccc23)c1` [Compound I-40a, (S)—N-(3-(2-(4-(1-(2-methoxyethyl)pyrrolidin-3-ylamino)phenylamino)-7H-pyrrolo[2,3-d]pyrimidin-4-yloxy)phenyl)acrylamide], the IC50 in experiment [1] is at least 400 nM; in experiment [2] it was at most 10 nM.

`C=CC(=O)Nc1cccc(Oc2nc(Nc3ccc(N(C)CCOC)cc3)nc3[nH]ccc23)c1` [Compound I-41a, N-(3-(2-(4-((2-methoxyethyl)(methyl)amino)phenylamino)-7H-pyrrolo[2,3-d]pyrimidin-4-yloxy)phenyl)acrylamide]: the IC50 is 200 to 400 nM in experiment [1] and 10 to 100 nM in experiment [2].

With `C=CC(=O)Nc1cccc(Oc2nc(Nc3ccc(N(C)[C@H]4CCN(CCOC)C4)cc3)ncc2OC)c1` [Compound I-42a, (S)—N-(3-(5-methoxy-2-(4-((1-(2-methoxyethyl)pyrrolidin-3-yl)(methyl)amino)phenylamino)pyrimidin-4-yloxy)phenyl)acrylamide], the values for the IC50 in experiment [1] and in experiment [2] were at least 400 nM and at most 10 nM, respectively.

As to `C=CC(=O)Nc1cccc(Oc2nc(Nc3ccc4c(ccn4CCF)c3)ncc2OC)c1` [Compound I-43a, N-(3-(2-(1-(2-fluoroethyl)-1H-indol-5-ylamino)-5-methoxypyrimidin-4-yloxy)phenyl)acrylamide], the IC50 was 200 to 400 nM in experiment [1] and at most 10 nM in experiment [2].

In the case of `C=CC(=O)Nc1cccc(Oc2nc(Nc3ccc(OCCS(C)(=O)=O)cc3)ncc2OC)c1` [Compound I-44a, N-(3-(5-methoxy-2-(4-(2-(methylsulfonyl)ethoxy)phenylamino)pyrimidin-4-yloxy)phenyl)acrylamide], the IC50 in experiment [1] is 200 to 400 nM; in experiment [2], at most 10 nM.

As for `C=CC(=O)Nc1cccc(Oc2nc(Nc3ccc4c(ccn4CCOC)c3)ncc2OC)c1` [Compound I-45a, N-(3-(5-methoxy-2-(1-(2-methoxyethyl)-1H-indol-5-ylamino)pyrimidin-4-yloxy)phenyl)acrylamide], the IC50 in experiment [1] lay in the range of 200 to 400 nM; in experiment [2], 10 to 100 nM.

As to `C=CC(=O)Nc1cccc(Oc2nc(Nc3ccc(N(C)CCOC)nc3)nc3[nH]ccc23)c1` [Compound I-46a, N-(3-(2-(6-((2-methoxyethyl)(methyl)amino)pyridin-3-ylamino)-7H-pyrrolo[2,3-d]pyrimidin-4-yloxy)phenyl)acrylamide], the IC50 in experiment [1] is at least 400 nM; in experiment [2], 10 to 100 nM.

For the compound `C=CC(=O)Nc1cccc(Oc2nc(Nc3ccc(N4CCN(CCOC)CC4)cc3)nc3[nH]ccc23)c1` [Compound I-47a, N-(3-(2-(4-(4-(2-methoxyethyl)piperazin-1-yl)phenylamino)-7H-pyrrolo[2,3-d]pyrimidin-4-yloxy)phenyl)acrylamide], the IC50 in experiment [1] is 200 to 400 nM; in experiment [2], at most 10 nM.

`C=CC(=O)Nc1cccc(Oc2nc(Nc3ccc(N4CCN(CCOC)CC4)c(F)c3)nc3[nH]ccc23)c1` [Compound I-48a, N-(3-(2-(3-fluoro-4-(4-(2-methoxyethyl)piperazin-1-yl)phenylamino)-7H-pyrrolo[2,3-d]pyrimidin-4-yloxy)phenyl)acrylamide]: the IC50 in experiment [1] is 200 to 400 nM; in experiment [2], at most 10 nM.

For `C=CC(=O)Nc1cccc(Oc2nc(Nc3ccc(N(C)[C@H]4CCN(CCOC)C4)cc3)nc3[nH]ccc23)c1` [Compound I-49a, (S)—N-(3-(2-(4-((1-(2-methoxyethyl)pyrrolidin-3-yl)(methyl)amino)phenylamino)-7H-pyrrolo[2,3-d]pyrimidin-4-yloxy)phenyl)acrylamide], the results for the IC50 in experiment [1] and in experiment [2] were at least 400 nM and at most 10 nM, respectively.

As for `C=CC(=O)Nc1cccc(Oc2nc(Nc3ccc4c(c3)CN(CCOC)C4)ncc2OC)c1` [Compound I-50a, N-(3-(5-methoxy-2-(2-(2-methoxyethyl)isoindolin-5-ylamino)pyrimidin-4-yloxy)phenyl)acrylamide], the IC50 in experiment [1] is at least 400 nM; in experiment [2], 10 to 100 nM.

In the case of `C=CC(=O)Nc1cccc(Oc2nc(Nc3ccc(N(CC)[C@H]4CCN(CCOC)C4)cc3)ncc2OC)c1` [Compound I-51a, (S)—N-(3-(2-(4-(ethyl(1-(2-methoxyethyl)pyrrolidin-3-yl)amino)phenylamino)-5-methoxypyrimidin-4-yloxy)phenyl)acrylamide], the results for the IC50 in experiment [1] and in experiment [2] were at least 400 nM and at most 10 nM, respectively.

With `C=CC(=O)Nc1cccc(Oc2nc(Nc3ccc4c(c3)CC(=O)N4CCOC)ncc2OC)c1` [Compound I-52a, N-(3-(5-methoxy-2-(1-(2-methoxyethyl)-2-oxoindolin-5-ylamino)pyrimidin-4-yloxy)phenyl)acrylamide], the IC50 in experiment [1] is at least 400 nM; in experiment [2], at most 10 nM.

Consider `C=CC(=O)Nc1cccc(Oc2nc(Nc3ccc(N(C4CC4)[C@H]4CCN(CCOC)C4)cc3)ncc2OC)c1` [Compound I-53a, (S)—N-(3-(2-(4-(cyclopropyl(1-(2-methoxyethyl)pyrrolidin-3-yl)amino)phenylamino)-5-methoxypyrimidin-4-yloxy)phenyl)acrylamide], for which the IC50 in experiment [1] is at least 400 nM; in experiment [2], at most 10 nM.

Regarding `C=CC(=O)Nc1cccc(Oc2nc(Nc3ccc(N4CCN(CCS(C)(=O)=O)CC4)cc3)ncc2OC)c1` [Compound I-54a, N-(3-(5-methoxy-2-(4-(4-(2-(methylsulfonyl)ethyl)piperazin-1-yl)phenylamino)pyrimidin-4-yloxy)phenyl)acrylamide], the IC50 in experiment [1] was at least 400 nM; in experiment [2] it was at most 10 nM.

`C=CC(=O)Nc1cccc(Oc2nc(Nc3ccc4c(c3)CCN4C(C)=O)ncc2OC)c1` [Compound I-56a, N-(3-(2-(1-acetylindolin-5-ylamino)-5-methoxypyrimidin-4-yloxy)phenyl)acrylamide]: the IC50 in experiment [1] was 200 to 400 nM; in experiment [2], at most 10 nM.

For `C=CC(=O)Nc1cccc(Oc2nc(Nc3ccc(N(C)[C@H]4CCN(CCS(C)(=O)=O)C4)cc3)ncc2OC)c1` [Compound I-57a, (S)—N-(3-(5-methoxy-2-(4-(methyl(1-(2-(methylsulfonyl)ethyl)pyrrolidin-3-yl)amino)phenylamino)pyrimidin-4-yloxy)phenyl)acrylamide], the IC50 in experiment [1] was 200 to 400 nM; in experiment [2] it was at most 10 nM.
